Source: patent US8580577B2, “Method for detecting an analyte in a sample” (Evotec AG, priority 2002, dated 2013)

How the values were obtained:
CYP1A1 mRNA = assay: Expression of cyp1A1 mRNA in HepG2 cells stimulated with 3-methylcholanthrene (homogeneous bead-based detection oligonucleotide assay); format: cell-based; details: human, 24 h 3-MC, each of three plates, standard deviation 0.05 μM between plates
Procedure: (§1) Fully automated dual-channel confocal imaging was performed with two independent cooled CCD detectors. Excitation wavelengths were 532 nm and 633 nm, a dichroic beam splitter with 630 nm was used and emission filters were 565/50 nm and 690/40 nm. Laser power was ˜500 μW for both wavelengths, measured at the entrance of the objective. Exposure times were usually in the range of 500-1000 ms.
An image of the sample was acquired at 565 nm by the first CCD detector. This image is called the signal image. At this wavelength, the emission of the detection oligonucleotides is seen. Therefore, in principle one can see the fluorescence emission of both the unbound detection oligonucleotides as well as the detection oligonucleotides bound specifically to the analyte (and consequently via the capture oligonucleotides to the beads). […]
In addition, an image of the sample was acquired at 690 nm by the second CCD detector. […] The fluorescence of the biotinylated red oxazine dye bound to the beads can be seen as a red ring in the reference image (see FIG. 6, left picture). […] This fluorescence intensity is constant and not dependent on the mRNA analyte concentration, see FIG. 5 for illustration. […]
The analysis of the images was performed with image analysis software as follows. […] A mask of these rings corresponding to detected beads was generated from the reference image. […]

Cyp1A1 = Cyp1A1 induction by 3-methylcholanthrene, publication of Delescluse et al.; read-out: EC50 roughly estimated from a published Northern Blot; cited from earlier work
c-fos mRNA = assay: Expression of c-fos mRNA in HepG2 cells stimulated with PMA (homogeneous bead-based detection oligonucleotide assay, confocal imaging); format: cell-based; details: for Mean average fluorescence signal intensity/bead pixel: 1 h
Procedure: as §1
An image of the sample was acquired at 565 nm by the first CCD detector. This image is called the signal image. At this wavelength, the emission of the detection oligonucleotides is seen. Therefore, in principle one can see the fluorescence emission of both the unbound detection oligonucleotides as well as the detection oligonucleotides bound specifically to the analyte (and consequently via the capture oligonucleotides to the beads). To distinguish these signals from each other, the present invention teaches to minimize the emission of the unbound detection oligonucleotides by the use of complementary quencher oligonucleotides. The signal intensity on the beads is linear dependent on the analyte concentration, i.e. in the present example the mRNA concentration.
In addition, an image of the sample was acquired at 690 nm by the second CCD detector. This image is called the reference image. At this wavelength, the emission of the biotinylated red oxazine dye is seen. The fluorescence of the biotinylated red oxazine dye bound to the beads can be seen as a red ring in the reference image (see FIG. 6, left picture). This emission of the dyes bound to the beads can be distinguished from the background emission of the unbound biotinylated red oxazine dye through threshold techniques. This fluorescence intensity is constant and not dependent on the mRNA analyte concentration, see FIG. 5 for illustration. At extremely high mRNA concentrations it may become inversely related to the mRNA concentrations due to limited streptavidin binding sites, however, under physiological conditions and in the experiments presented here this was not the case.
The analysis of the images was performed with image analysis software as follows. Segmentation of the beads from the background was performed on a pixel-basis in the reference image. […] A mask of these rings corresponding to detected beads was generated from the reference image. This mask was applied to the signal image (see FIG. 6, right picture). Areas within the outer boundary of the ring were evaluated for fluorescence intensity stemming from the DO-analyte-CO complex bound to the bead. […] Such local background intensity was then subtracted from the signal intensity.
The final result was the mean fluorescence intensity/bead pixel of the signal image. In general, the intensity was averaged over all correctly detected beads of the image. The beads were usually comprised in wells of micro- or nanotiter plates and in some cases, several images were taken of each well. In this instance, the intensity was averaged over all images of one well.
HepG2 cells were seeded at a density of 2*10^6 cells in 10 ml medium/plate (corresponding to 2*10^5 cells/ml) in nine 10 cm tissue culture plates (Greiner bio-one, catalogue no. 664160) in DMEM-F12 (Gibco, catalogue no. 31331-028) supplemented with 10% FCS (Gibco, catalogue no. 10500-064). The cells were incubated for 48 h at 37° C. with 5% CO2. Then medium was changed to DMEM (Sigma, catalogue no. D 5921) supplemented with 0.1% sterile filtered HSA (Sigma, catalogue no. A 1653) and incubation was continued for 24 h at 37° C. with 5% CO2. Then the cells were incubated with PMA (Phorbol 12-myristate 13-acetate, Sigma, catalogue no. P1585) for 1 h at 37° C. and 5% CO2 to induce expression of c-fos. 500 μl of appropriate PMA dilutions in DMEM with 0.1% HSA were added, for final concentrations refer to table 4 below.
One control plate was used for cell counting, the final cell number was 1.5*10^7 cells/plate. […]

Row | SMILES | EC50 at 24 h (CYP1A1 mRNA) [nM] | EC50 (Cyp1A1) [nM] | average expression rate of c-fos mRNA (c-fos mRNA; 100 nM PMA, 7.2*10^4 lysed cells per well) [copies mRNA/cell] | c-fos mRNA copy number per well (c-fos mRNA; 100 nM PMA, 24 μl of lysate, from the calibration of example 1a) | EC50 (c-fos mRNA; HepG2 cells, 1 h PMA, read-out: EC50 of increase in c-fos expression) [nM] | Mean average fluorescence signal intensity/bead pixel (c-fos mRNA; HepG2 cells, PMA 0.5 nM) | Mean average fluorescence signal intensity/bead pixel (c-fos mRNA; HepG2 cells, PMA 1 nM) | Mean average fluorescence signal intensity/bead pixel (c-fos mRNA; HepG2 cells, PMA 10 nM) | Mean average fluorescence signal intensity/bead pixel (c-fos mRNA; HepG2 cells, PMA 100 nM) | Mean average fluorescence signal intensity/bead pixel (c-fos mRNA; HepG2 cells, PMA 500 nM) | Mean average fluorescence signal intensity/bead pixel (c-fos mRNA; HepG2 cells, PMA 1000 nM)
1 | Cc1ccc2cc3c(ccc4ccccc43)c3c2c1CC3 [3-MC, 3-methylcholanthrene] | 800 | ~500 | – | – | – | – | – | – | – | – | –
2 | CCCCCCCCCCCCCC(=O)O[C@@H]1[C@@H](C)[C@@]2(O)[C@@H](C=C(CO)C[C@]3(O)C(=O)C(C)=C[C@@H]23)[C@@H]2C(C)(C)[C@]12OC(C)=O [PMA, Phorbol 12-myristate 13-acetate] | – | – | 42 | 3.03*10^6 copies mRNA/well | 484 | 1.51 | 1.53 | 4.84 | 14.29 | 24.44 | 30.03
